Earlier results in PMC7599555 (Biomedicines, 2020).

Test system: TTX-sensitive channels; NaV1.8

NC1=N[C@H](O)[C@H]2[C@H]3O[C@]4(O)O[C@@H]([C@@H](O)[C@@]2(N1)[C@@H]4O)[C@]3(O)CO [TTX, tetrodotoxin]
inhibition of TTX-sensitive channels and NaV1.8: fully inhibits TTX-sensitive channels but not NaV1.8
